Values joined by “and” are separate entries in the source; they are usually repeats but may differ in a detail not shown here. Equal values may be shown once. After the bases stand the sugars from the 5' end (letter, count) and the backbone: PS all phosphorothioate, else s phosphorothioate and o phosphodiester by linkage. Methylation of C is not given here. e = 2'-O-(2-methoxyethyl) (MOE); k = constrained ethyl (cEt); d = 2'-deoxy (DNA)
Molecular target: IRF5
Conditions: ASO, A-431, 0.00412 µM

Work on “CTGATATGATACCTAA (sugars k3 d1 k1 d8 k3, PS)” yielded a target mRNA inhibition of 20%.

Same assay, conditions: ASO, A-431, 0.01225 µM

With “CTGATATGATACCTAA (sugars k3 d1 k1 d8 k3, PS)” the target mRNA inhibition was 29%.

Same assay, conditions: ASO, A-431, 0.03704 µM

In the case of “CTGATATGATACCTAA (sugars k3 d1 k1 d8 k3, PS)”, the target mRNA inhibition is reported as 38%.

Same assay, conditions: ASO, A-431, 0.11111 µM

“CTGATATGATACCTAA (sugars k3 d1 k1 d8 k3, PS)” gave a target mRNA inhibition of 64%.

Same assay, conditions: ASO, A-431, 0.33333 µM

“CTGATATGATACCTAA (sugars k3 d1 k1 d8 k3, PS)” gave a target mRNA inhibition of 83%.

Same assay, conditions: ASO, A-431, 1 µM

In the case of “CTGATATGATACCTAA (sugars k3 d1 k1 d8 k3, PS)”, the target mRNA inhibition is reported as 83%.

Same assay, conditions: ASO, KARPAS-229, 0.44444 µM

First: CCAATTTTGCATTCCA (sugars k3 d10 k3, PS)
Second: CCATTCTATGCCTTTT (sugars kkddddddddddkeke, PS)
The target mRNA inhibition of the first is higher: 51% for the first, 37% for the second.

Same assay, conditions: ASO, KARPAS-229, 1.33333 µM

Compared with CCAATTTTGCATTCCA (sugars k3 d10 k3, PS), “CCATTCTATGCCTTTT (sugars kkddddddddddkeke, PS)” is lower in target mRNA inhibition: 74% for the first, 45% for the second.

Same assay, conditions: ASO, KARPAS-229, 4 µM

Going from “CAATTTTGCATTCCAT (sugars kkddddddddkekekk, PS)” to “CACATCTCCACATCAG (sugars kddddddddddkekek, PS)”, the target mRNA inhibition falls from 32% to 15%.

Going from “CACATCTCCACATCAG (sugars kkdddddddddkekek, PS)” to “CACCACTGTGTACCCC (sugars kdddddddddkekeke, PS)”, the target mRNA inhibition falls from 22% to 0%.

“CACTGACACAGGCGGA (sugars kekdddddddddeekk, PS)” and “CACTGACACAGGCGGA (sugars kkddddddddkekekk, PS)” are the same in target mRNA inhibition: 0% for the first, 0% for the second.

First: CACTTGATTCCAATTT (sugars k3 d10 k3, PS)
Second: CAGGTTCTTGGACTCT (sugars kkddddddddkekekk, PS)
The target mRNA inhibition of the first is higher: 36% for the first, 0% for the second.

Going from “CAGGTTCTTGGACTCT (sugars kkkddddddddkekek, PS)” to “CATCTCCACATCAGTC (sugars kdddddddddkekeke, PS)”, the target mRNA inhibition rises from 0% to 32%.

Compared with “CATTCCATATACACAC (sugars kddddddddddkekek, PS)”, “CATTCCATATACACAC (sugars kkdddddddddkdkdk, PS)” is lower in target mRNA inhibition: 31% for the first, 25% for the second.

“CCAATGCAACATCCAT (sugars k2 d9 e3 k2, PS)” and CCAATGCAACATCCAT (sugars k3 d10 k3, PS) are the same in target mRNA inhibition: 0% for the first, 0% for the second.

Compared with “CCAATTTTGCATTCCA (sugars k2 d8 e4 k2, PS)”, “CCACTGTGTACCCCAT (sugars kkddddddddkekekk, PS)” is lower in target mRNA inhibition: 48% for the first, 0% for the second.

Compared with “CCATTCTATGCCTTTT (sugars kkdddddddddkdkdk, PS)”, “CCATTCTATGCCTTTT (sugars kkddddddddkekekk, PS)” is lower in target mRNA inhibition: 46% for the first, 3% for the second.

Going from “CCATTCTATGCCTTTT (sugars kkkddddddddkekek, PS)” to CCCAATGCAACATCCA (sugars k3 d10 k3, PS), the target mRNA inhibition falls from 44% to 12%.

“CCCAATGCAACATCCA (sugars kkkddddddddkdkdk, PS)” and “CCTTCTGCAGGGAGTC (sugars k3 d9 k3 e1, PS)” are the same in target mRNA inhibition: 0% for the first, 0% for the second.

CCTTCTGCAGGGAGTC (sugars k3 d10 k3, PS) and “CCTTCTGCAGGGAGTC (sugars kkddddddddddkeke, PS)” are the same in target mRNA inhibition: 0% for the first, 0% for the second.

Going from “CGGTCTTTGAGGTCTG (sugars kddddddddddkekek, PS)” to CTAGTGTCATGGAATT (sugars k3 d10 k3, PS), the target mRNA inhibition falls from 68% to 34%.

“CTGACACAGGCGGATG (sugars kdddddddddkekeke, PS)” and “CTGACACAGGCGGATG (sugars kkddddddddkekekk, PS)” are the same in target mRNA inhibition: 0% for the first, 0% for the second.

“CTGTCACATCTCCACA (sugars kkddddddddkekekk, PS)” and “CTTCTGCAGGGAGTCA (sugars k3 d9 k3 e1, PS)” are the same in target mRNA inhibition: 0% for the first, 0% for the second.

“CTTCTGCAGGGAGTCA (sugars kkdddddddddkdkdk, PS)” and “CTTCTGCAGGGAGTCA (sugars kkkddddddddkekek, PS)” are the same in target mRNA inhibition: 0% for the first, 0% for the second.

CTTGATTCCAATTTTG (sugars k3 d10 k3, PS) and “CTTGGTCTTGACCTCC (sugars k2 d8 e4 k2, PS)” are the same in target mRNA inhibition: 20% for the first, 20% for the second.

Compared with “CTTGGTCTTGACCTCC (sugars k3 d9 k3 e1, PS)”, “CTTGGTCTTGACCTCC (sugars kkddddddddddkeke, PS)” is higher in target mRNA inhibition: 6% for the first, 39% for the second.

Going from “CTTGGTCTTGACCTCC (sugars kkdddddddddkdkdk, PS)” to “CTTGGTCTTGACCTCC (sugars kkdddddddddkekek, PS)”, the target mRNA inhibition falls from 13% to 3%.

Going from “CTTGGTCTTGACCTCC (sugars kkddddddddkekekk, PS)” to “CTTGGTCTTGACCTCC (sugars kkkddddddddkdkdk, PS)”, the target mRNA inhibition rises from 0% to 19%.

First: CTTGGTCTTGACCTCC (sugars kkkddddddddkekek, PS)
Second: GAGACGAGCAAAGGGT (sugars k3 d10 k3, PS)
The target mRNA inhibition of the first is lower: 1% for the first, 40% for the second.

First: GAGCAAAGGGTGAGTA (sugars k3 d10 k3, PS)
Second: GAGTAATAGGAGTGAG (sugars k3 d10 k3, PS)
The target mRNA inhibition of the first is lower: 0% for the first, 33% for the second.

First: GAGTCATGGGCTGAGG (sugars k2 d8 e4 k2, PS)
Second: GAGTCATGGGCTGAGG (sugars k2 d9 e3 k2, PS)
The target mRNA inhibition of the first is lower: 5% for the first, 30% for the second.

Going from “GAGTCATGGGCTGAGG (sugars kddddddddddkekek, PS)” to “GAGTCATGGGCTGAGG (sugars kkdddddddddkdkdk, PS)”, the target mRNA inhibition rises from 0% to 31%.

Compared with “GAGTCTCAAACCAGGG (sugars kdddddddddkekeke, PS)”, “GAGTGAGACGAGCAAA (sugars kddddddddddkekek, PS)” is higher in target mRNA inhibition: 6% for the first, 18% for the second.

Going from “GAGTGAGACGAGCAAA (sugars kdddddddddkekeke, PS)” to “GATGGTGTTATCTCCG (sugars kkddddddddddkeke, PS)”, the target mRNA inhibition falls from 6% to 0%.

Going from “GCATTCCATATACACA (sugars kdddddddddkekeke, PS)” to “GCATTCCATATACACA (sugars kkddddddddkekekk, PS)”, the target mRNA inhibition falls from 34% to 0%.

First: GCTGTCACATCTCCAC (sugars k3 d10 k3, PS)
Second: GCTTGGTCTTGACCTC (sugars k2 d8 e4 k2, PS)
The target mRNA inhibition of the first is higher: 33% for the first, 19% for the second.

Compared with “GCTTGGTCTTGACCTC (sugars kddddddddddkekek, PS)”, “GCTTGGTCTTGACCTC (sugars kkddddddddddkeke, PS)” is lower in target mRNA inhibition: 18% for the first, 9% for the second.

Going from “GCTTGGTCTTGACCTC (sugars kkkddddddddkdkdk, PS)” to “GGAAGTGAGTCTCAAA (sugars kkdddddddddkekek, PS)”, the target mRNA inhibition falls from 30% to 25%.

Compared with “GGAAGTGAGTCTCAAA (sugars kkkddddddddkekek, PS)”, GGAGTGAGACGAGCAA (sugars k3 d10 k3, PS) is lower in target mRNA inhibition: 45% for the first, 37% for the second.

Going from “GGAGTGAGACGAGCAA (sugars kkdddddddddkekek, PS)” to “GGAGTGAGACGAGCAA (sugars kkkddddddddkekek, PS)”, the target mRNA inhibition falls from 27% to 5%.

Going from GGGAGTCAGACCTACC (sugars k3 d10 k3, PS) to “GGGCACAGCGCAGGTT (sugars kdddddddddkekeke, PS)”, the target mRNA inhibition rises from 0% to 33%.

“GGTCTGGCCCTTTTGG (sugars kddddddddddkekek, PS)” and “GGTCTGGCCCTTTTGG (sugars kdddddddddkekeke, PS)” are the same in target mRNA inhibition: 0% for the first, 0% for the second.

With CACTGACACAGGCGGA (sugars k3 d10 k3, PS) the target mRNA inhibition was 1% and 0%.
For CCAATTTTGCATTCCA (sugars k3 d10 k3, PS), the target mRNA inhibition was 78% and 83%.
“CCATTCTATGCCTTTT (sugars kkddddddddddkeke, PS)” was tested, and the target mRNA inhibition was 61% and 62%.

Same assay, conditions: ASO, KARPAS-229, 12 µM

Going from CCAATTTTGCATTCCA (sugars k3 d10 k3, PS) to “CCATTCTATGCCTTTT (sugars kkddddddddddkeke, PS)”, the target mRNA inhibition falls from 89% to 73%.

From the OligoGym collection
